Results reported in publication PMC7728754, “MRI-based molecular imaging of epicardium-derived stromal cells (EpiSC) by peptide-mediated active targeting” (Scientific Reports, 2020).
Entries after “also recorded” stand apart in the source; their conditions may differ. Values belong to the substance of their own block, whether it stands above or below them.

Tests used:
cultured EpiSCs [1] = assay: Flow cytometry binding of FAM-labelled EPs to cultured EpiSCs; type: cell-based, rat; details: 5 µg/ml FAM-labelled peptide, up to 120 min, 37 °C, n = 5
Experimental: EpiSCs were detached from the cell culture flask with PBS-EDTA (5 mM) and resuspended in DMEM at a concentration of 0.5 × 10^6 cells/ml. Cell suspensions were incubated with 5 µg/ml of EP1, EP2, EP3, EP7 and EP9 for up to 120 min at 37 °C. After 10, 20, 40, 80 and 120 min, samples were transferred into tubes containing ice-cold MACS buffer (PBS, 2% FCS, 1 mM EDTA) to stop the reaction. Cells were centrifuged for 5 min at 500 × g and 4 °C, washed twice and finally suspended in MACS buffer with DAPI (4′,6-Diamidino-2-phenylindole dihydrochloride; 1 µg/ml) to label dead cells. Flow cytometric analysis was performed on a BD FACS Canto II (BD Biosciences, Heidelberg, Germany).

EpiSCs = assay: Surface plasmon resonance, EpiSCs over immobilized EP9; type: binding, rat; details: SPR, 25 °C, PBS
Experimental: (§1) To analyse the interaction kinetics between peptide EP9 and EpiSCs, we used a BIAcore X100 system equipped with a CM5 sensor chips (GE Healthcare GmbH, Solingen, Germany). EP9 peptide was immobilized to the surface of the CM5 chip (600 µg/ml; 30 µl/min) using a thiol coupling chemistry (GE Healthcare GmbH). Presence of a free SH group at the C-terminal of EP9 peptide enabled us to efficiently immobilize it through a thiol coupling procedure. Afterward, EpiSCs and THP-1 monocytes (ATCC: TIB-202; 10,000 cells/µl) were injected over the sensor chip to monitor the association between immobilized EP9 peptide and the cells. After injection of the cells, dissociation phase was monitored by introduction of buffer for a period of 300 s. In another experimental strategy, increasing numbers of EpiSCs (200, 400 and 800 × 10^3) were flushed over the immobilized peptide EP9 with a flow rate of 30 µl/min and dissociation was measured for an identical period of time. Finally, to block the EP9 binding sites, EpiSCs were pre-incubated for 30 min with 5 µg of EP9 before injection into the BIAcore system and subjected to the same procedure as described above. All SPR experiments were carried out at 25 °C in PBS.

THP-1 monocytes = assay: Surface plasmon resonance, THP-1 monocytes over immobilized EP9; type: binding, human; details: SPR, CM5 chip, 30 µl/min, 25 °C, PBS, negative control cells
Experimental: as §1

[2] = test system: primary human CD14+ monocytes; assay: Flow cytometry binding of EP9 to primary human monocytes; type: cell-based; details: 1.9 µg EP9 in 600 µl cell suspension, up to 45 min, 37 °C, n = 4 (Fig. S3)
Experimental: Blood was withdrawn from healthy human volunteers by venous puncture and 10 ml of whole blood were mixed with 10 ml of PBS and gently laid on top of Histopaque-1077 (Sigma-Aldrich Chemie GmbH). After density centrifugation, the PBMC layer was diluted 1:1 with PBS and a centrifugation step was performed. The cell pellet was subjected to erythrocyte lysis using hypotonic buffer for 10 min at 4 °C. After centrifugation, the cells were resuspended in 8.5 ml DMEM. The cell suspension (600 µl) was incubated with 1.9 µg of EP9 for 45 min, at 37 °C. After 5, 15 and 45 min, samples were transferred into ice cold MACS buffer to stop the reaction and centrifuged for 5 min at 500 × g. Cells were washed with MACS buffer, resuspended in CD14-PE/Cy7 (PE/Cy7 anti-human CD14, Clone 63D3, BioLegend, San Diego, USA) antibody solution and incubated for 30 min at 4 °C. Flow cytometric analysis was performed after two washing steps and suspension in MACS buffer with DAPI (1 µg/ml) using a BD FACS Canto II.

EpiSC and THP-1 cells = assay: Cytotoxicity by DAPI flow cytometry; type: cell-based; details: 200 µl of cells + 5 µl EP9PFCs or 1.9 µg EP9, up to 120 min, 37 °C, n = 3
Experimental: EpiSC and THP-1 cells were incubated with EP9 peptide or ^EP9PFCs (200 µl of cells + 5 µl ^EP9PFCs or 1.9 µg EP9) over a period of 120 min at 37 °C. Samples were withdrawn after 0 min, 15 min, 30 min, 60 min and 120 min and analyzed by flow cytometry. Cells were stained with DAPI (1 µg/ml) to label dead cells.

cultured EpiSCs [3] = assay: Impact of storage on EP9/EP9PFC targeting efficacy; type: cell-based, rat; details: stored in phosphate buffer at 4 °C for 24 h, then 30 min at 37 °C on cultured EpiSCs, flow cytometry, n = 3
Experimental: EP9 and ^EP9PFCs were stored in phosphate buffer at 4 °C for 6 h and 24 h. Subsequently EP9 and ^EP9PFCs were incubated on cultured EpiSCs for 30 min at 37 °C. Cells were washed twice with MACS buffer and then analyzed by flow cytometry.

Substance: ATKTIAP [EP2]
Binding to cultured EpiSCs (cultured EpiSCs [1]): strong binding

Substance: KLMLPRP [EP9]
Binding to cultured EpiSCs (cultured EpiSCs [1]): strong binding; also recorded: best binding properties
Association of EpiSCs to immobilized peptide (EpiSCs; CM5 chip, thiol coupling, 30 µl/min): rapidly associated
Dissociation rate (EpiSCs; EpiSCs over thiol-immobilized EP9, 30 µl/min): 0.005 s⁻¹
Association of THP-1 monocytes to immobilized peptide (THP-1 monocytes): only minor association
Binding to primary monocytes [2]: not detectable
Acute cytotoxic effects (EpiSC and THP-1 cells): did not find evidence for acute cytotoxic effects
Cellular labelling of EpiSCs after storage (cultured EpiSCs [3]): severely reduced

Substance: SEPIVPL [EP1]
Binding to cultured EpiSCs (cultured EpiSCs [1]): strong binding

Next, values leading:

Binding to cultured EpiSCs (cultured EpiSCs [1]): strong binding
Substance: QSHALMA [EP7]

Binding to cultured EpiSCs (cultured EpiSCs [1]): strong binding
Substance: THVYRDE [EP3]
